This passage reports EC50 results from patent publication US20240043404A1 (AbbVie Inc., priority 2009, published 2024).

Structures are written as SMILES.

This assay relates to RS4;11 cells. The assay is described as follows: RS4;11 cell viability assay (CellTiter Glo).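 Further: acute lymphoblastic leukemia line RS4,11, EC50 derived from percentage of viable cells after treatment relative to untreated controls, cell killing taken as a measure of Bcl-2 inhibition.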 It is filed as cell-based, human. Particulars: Homo sapiens, RS4-11, 48 h, 50,000 cells per well, 10% human serum, 48 hours; read-out: RS4; 11 EC50 Values. Background: ATP-based viability assays read luminescence as a measure of living cells.
Protocol: The acute lymphoblastic leukemia (ALL) cell line RS4;11 was used as the primary human cell line to assess the cellular activity of Bcl-2 selective agents in vitro and their efficacy in vivo.
Cell cytotoxicity EC50 values were assessed using CellTiter Glo (Promega) according to the manufacturer's recommendations. The EC50 values were determined as a percentage of viable cells following treatment compared to the untreated control cells.
Regarding `COCCOc1ncc(S(=O)(=O)NC(=O)c2ccc(N3CCN(CC4=C(c5ccc(Cl)cc5)CC(C)(C)CC4)CC3)cc2Oc2cnc3[nH]ccc3c2)cc1Cl` [Example 292, N-{[5-chloro-6-(2-methoxyethoxy)pyridin-3-yl]sulfonyl}-4-(4-{[2-(4-chlorophenyl)-4,4-dimethylcyclohex-1-en-1-yl]methyl}piperazin-1-yl)-2-(1H-pyrrolo[2,3-b]pyridin-5-yloxy)benzamide], the EC50 came out at 889 nM.

With `CC1(C)CCC(CN2CCN(c3ccc(C(=O)NS(=O)(=O)c4cnc(OC[C@@H]5CN(CC#N)CCO5)c(Cl)c4)c(Oc4cnc5[nH]ccc5c4)c3)CC2)=C(c2ccc(Cl)cc2)C1` [Example 244, N-[(5-chloro-6-{[(2S)-4-(cyanomethyl)morpholin-2-yl]methoxy}pyridin-3-yl)sulfonyl]-4-(4-{[2-(4-chlorophenyl)-4,4-dimethylcyclohex-1-en-1-yl]methyl}piperazin-1-yl)-2-(1H-pyrrolo[2,3-b]pyridin-5-yloxy)benzamide], the EC50 was determined as 794 nM. For `CC1(C)CCC(CN2CCN(c3ccc(C(=O)NS(=O)(=O)c4cnc(OC[C@@H]5CCN(CC(F)F)C5)c(Cl)c4)c(Oc4cnc5[nH]ccc5c4)c3)CC2)=C(c2ccc(Cl)cc2)C1` [Example 281, N-[(5-chloro-6-{[(3R)-1-(2,2-difluoroethyl)pyrrolidin-3-yl]methoxy}pyridin-3-yl)sulfonyl]-4-(4-{[2-(4-chlorophenyl)-4,4-dimethylcyclohex-1-en-1-yl]methyl}piperazin-1-yl)-2-(1H-pyrrolo[2,3-b]pyridin-5-yloxy)benzamide], the EC50 came out at 654 nM. For `CC1(C)CCC(c2ccc(Cl)cc2)=C(CN2CCN(c3ccc(C(=O)NS(=O)(=O)c4ccc(OCC5(F)CCOCC5)c([N+](=O)[O-])c4)c(Oc4cnc5[nH]ccc5c4)c3)CC2)C1` [Example 119, 4-(4-{[2-(4-chlorophenyl)-5,5-dimethylcyclohex-1-en-1-yl]methyl}piperazin-1-yl)-N-({4-[(4-fluorotetrahydro-2H-pyran-4-yl)methoxy]-3-nitrophenyl}sulfonyl)-2-(1H-pyrrolo[2,3-b]pyridin-5-yloxy)benzamide], the EC50 stood at 11.4 nM.

Regarding `CC1(C)CCC(CN2CCN(c3ccc(C(=O)NS(=O)(=O)c4ccc(OCC5(F)CCOCC5)c(C(F)(F)F)c4)c(Oc4cnc5[nH]ccc5c4)c3)CC2)=C(c2ccc(Cl)cc2)C1` [Example 307, 4-(4-{[2-(4-chlorophenyl)-4,4-dimethylcyclohex-1-en-1-yl]methyl}piperazin-1-yl)-N-({4-[(4-fluorotetrahydro-2H-pyran-4-yl)methoxy]-3-(trifluoromethyl)phenyl}sulfonyl)-2-(1H-pyrrolo[2,3-b]pyridin-5-yloxy)benzamide], the EC50 is 128 nM. Turning to `CC(=O)N1CCC(Nc2ccc(S(=O)(=O)NC(=O)c3ccc(N4CCN(CC5=C(c6ccc(Cl)cc6)CC(C)(C)CC5)CC4)cc3Oc3cnc4[nH]ccc4c3)cc2[N+](=O)[O-])CC1` [Example 53, N-({4-[(1-acetylpiperidin-4-yl)amino]-3-nitrophenyl}sulfonyl)-4-(4-{[2-(4-chlorophenyl)-4,4-dimethylcyclohex-1-en-1-yl]methyl}piperazin-1-yl)-2-(1H-pyrrolo[2,3-b]pyridin-5-yloxy)benzamide], the EC50 is 66.7 nM. For the compound `CC1(C)CCC(CC2CCN(c3ccc(C(=O)NS(=O)(=O)c4ccc(NCC5CCOCC5)c([N+](=O)[O-])c4)c(Oc4cnc5[nH]ccc5c4)c3)CC2)C(c2ccc(Cl)cc2)C1` (stereo not shown) [Example 296, 4-(4-{[2-(4-chlorophenyl)-4,4-dimethylcyclohexyl]methyl}piperidin-1-yl)-N-({3-nitro-4-[(tetrahydro-2H-pyran-4-ylmethyl)amino]phenyl}sulfonyl)-2-(1H-pyrrolo[2,3-b]pyridin-5-yloxy)benzamide], the EC50 is 769 nM.

For `CC1(C)CCC(CN2CCN(c3ccc(C(=O)NS(=O)(=O)c4ccc(OCC5COCCN5)c([N+](=O)[O-])c4)c(Oc4cnc5[nH]ccc5c4)c3)CC2)=C(c2ccc(Cl)cc2)C1` (stereo not shown) [Example 78, 4-(4-{[2-(4-chlorophenyl)-4,4-dimethylcyclohex-1-en-1-yl]methyl}piperazin-1-yl)-N-{[4-(morpholin-3-ylmethoxy)-3-nitrophenyl]sulfonyl}-2-(1H-pyrrolo[2,3-b]pyridin-5-yloxy)benzamide], the EC50 came out at 12.5 nM. Consider `CN(C)CC(=O)N1CCO[C@H](CNc2ccc(S(=O)(=O)NC(=O)c3ccc(N4CCN(CC5=C(c6ccc(Cl)cc6)CC(C)(C)CC5)CC4)cc3Oc3cnc4[nH]ccc4c3)cc2[N+](=O)[O-])C1` [Example 258, 4-(4-{[2-(4-chlorophenyl)-4,4-dimethylcyclohex-1-en-1-yl]methyl}piperazin-1-yl)-N-{[4-({[(2R)-4-(N,N-dimethylglycyl)morpholin-2-yl]methyl}amino)-3-nitrophenyl]sulfonyl}-2-(1H-pyrrolo[2,3-b]pyridin-5-yloxy)benzamide], for which the EC50 worked out at 0.553 nM. Regarding `CC1(C)CCC(CN2CCN(c3ccc(C(=O)NS(=O)(=O)c4cnc(N[C@H]5CC[C@H](N6CCOCC6)CC5)c(C#N)c4)c(Oc4cnc5[nH]ccc5c4)c3)CC2)=C(c2ccc(Cl)cc2)C1` [Example 109, Trans-4-(4-{[2-(4-chlorophenyl)-4,4-dimethylcyclohex-1-en-1-yl]methyl}piperazin-1-yl)-N-({5-cyano-6-[(4-morpholin-4-ylcyclohexyl)amino]pyridin-3-yl}sulfonyl)-2-(1H-pyrrolo[2,3-b]pyridin-5-yloxy)benzamide], the EC50 was found to be 183 nM. Then `CN1CCC(F)(COc2ccc(S(=O)(=O)NC(=O)c3ccc(N4CCN(CC5=C(c6ccc(Cl)cc6)CC(C)(C)CC5)CC4)cc3Oc3cnc4[nH]ccc4c3)cc2Cl)CC1` [Example 283, N-({3-chloro-4-[(4-fluoro-1-methylpiperidin-4-yl)methoxy]phenyl}sulfonyl)-4-(4-{[2-(4-chlorophenyl)-4,4-dimethylcyclohex-1-en-1-yl]methyl}piperazin-1-yl)-2-(1H-pyrrolo[2,3-b]pyridin-5-yloxy)benzamide], with 13.1 nM; and `CO[C@H]1CC[C@H](COc2ncc(S(=O)(=O)NC(=O)c3ccc(N4CCN(CC5=C(c6ccc(Cl)cc6)CC(C)(C)CC5)CC4)cc3Oc3cnc4[nH]ccc4c3)cc2C(F)(F)F)CC1` [Example 300, 4-(4-{[2-(4-chlorophenyl)-4,4-dimethylcyclohex-1-en-1-yl]methyl}piperazin-1-yl)-N-({6-[(trans-4-methoxycyclohexyl)methoxy]-5-(trifluoromethyl)pyridin-3-yl}sulfonyl)-2-(1H-pyrrolo[2,3-b]pyridin-5-yloxy)benzamide], with 763 nM; and `CCN(C)C(=O)N1CCO[C@H](COc2ncc(S(=O)(=O)NC(=O)c3ccc(N4CCN(CC5=C(c6ccc(Cl)cc6)CC(C)(C)CC5)CC4)cc3Oc3cnc4[nH]ccc4c3)cc2Cl)C1` [Example 334, (2S)-2-{[(3-chloro-5-{[4-(4-{[2-(4-chlorophenyl)-4,4-dimethylcyclohex-1-en-1-yl]methyl}piperazin-1-yl)-2-(1H-pyrrolo[2,3-b]pyridin-5-yloxy)benzoyl]sulfamoyl}pyridin-2-yl)oxy]methyl}-N-ethyl-N-methylmorpholine-4-carboxamide], with over 1000 nM.
